According to PubChem BioAssay AID1919001 (Molecular Pharmacology Branch, DTP, NCI, 2023):

Tested on: 699152-130-R-J1-PDC complex spheroid growth
Assay: Anticancer human tumor 699152-130-R-J1-PDC patient-derived pancreatic carcinoma cell line growth inhibition [AhR]
Conditions: for viability, T/C: stronger effect = lower value
Summary of the method: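 Agents were dosed in half-log steps down from roughly clinical Cmax, or from 10 microM where Cmax was unknown, alone and with AhR antagonists. Read-out: percent test/control growth of tumor spheroids containing HUVEC and MSC stromal cells.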

[1] = curve of first compound, second compound 0.1 µM
[2] = curve of first compound, second compound 0.316 µM
[3] = curve of first compound, second compound 1 µM
[4] = curve of first compound, second compound 3.16 µM
[5] = curve of first compound, second compound 10 µM
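Note: compound exposure lasted 7 days after spheroids had grown for 3 days.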

For `CC(C)CC(NC(=O)C(Cc1ccccc1)NC(=O)c1cnccn1)B(O)O` (configuration not stated) + Cc1cncc(-c2nc(NCCc3c[nH]c4ccccc34)c3ncn(C(C)C)c3n2)c1, the IC50 [1] was 0.015 µM, the IC50 [2] was 0.0163 µM and the IC50 [3] was 0.017 µM. For the same molecule, the IC50 [4] was 0.0157 µM, the IC50 [5] was less than 0.000949 µM and the viability, T/C (second compound 0.1 µM, first compound 0.000949 µM) was 107%. For the same molecule, the viability, T/C (second compound 0.1 µM, first compound 0.003 µM) was 104%, the viability, T/C (second compound 0.1 µM, first compound 0.00949 µM) was 82.4% and the viability, T/C (second compound 0.1 µM, first compound 0.03 µM) was 1.43%. For the same molecule, the viability, T/C (second compound 0.1 µM, first compound 0.0949 µM) was 2.12%, the viability, T/C (second compound 0.1 µM, first compound 0.3 µM) was 0.56% and the viability, T/C (second compound 0.316 µM, first compound 0.000949 µM) was 99.4%. The viability, T/C (second compound 0.316 µM, first compound 0.003 µM) was 112%, the viability, T/C (second compound 0.316 µM, first compound 0.00949 µM) was 93.8% and the viability, T/C (second compound 0.316 µM, first compound 0.03 µM) was 0.83%. It also gave a viability, T/C (second compound 0.316 µM, first compound 0.0949 µM) of 0.54%, a viability, T/C (second compound 0.316 µM, first compound 0.3 µM) of 0.39% and a viability, T/C (second compound 1 µM, first compound 0.000949 µM) of 119%. It also gave a viability, T/C (second compound 1 µM, first compound 0.003 µM) of 111%, a viability, T/C (second compound 1 µM, first compound 0.00949 µM) of 100% and a viability, T/C (second compound 1 µM, first compound 0.03 µM) of 0.8%. It also gave a viability, T/C (second compound 1 µM, first compound 0.0949 µM) of 0.31%, a viability, T/C (second compound 1 µM, first compound 0.3 µM) of 0.34% and a viability, T/C (second compound 3.16 µM, first compound 0.000949 µM) of 80.3%. For the same molecule, the viability, T/C (second compound 3.16 µM, first compound 0.003 µM) was 92.8%, the viability, T/C (second compound 3.16 µM, first compound 0.00949 µM) was 91.3% and the viability, T/C (second compound 3.16 µM, first compound 0.03 µM) was 0.56%. The viability, T/C (second compound 3.16 µM, first compound 0.0949 µM) was 0.26%, the viability, T/C (second compound 3.16 µM, first compound 0.3 µM) was 0.31% and the viability, T/C (second compound 10 µM, first compound 0.000949 µM) was 10.4%. It also gave a viability, T/C (second compound 10 µM, first compound 0.003 µM) of 12.2%, a viability, T/C (second compound 10 µM, first compound 0.00949 µM) of 5.17% and a viability, T/C (second compound 10 µM, first compound 0.03 µM) of 0.33%. The viability, T/C (second compound 10 µM, first compound 0.0949 µM) was 0.3% and the viability, T/C (second compound 10 µM, first compound 0.3 µM) was 0.39%.
For `CC(CO)NC(=O)c1cc(-c2ccc(Cl)cc2)nn(-c2cnn(C)c2)c1=O` (configuration not stated), the viability, T/C (compound 0.1 µM) was 92.1% [middle of 21 runs] and the IC50 (compound alone, run of 07/12/2022) was greater than 10 µM.
For `Nc1ccccc1NC(=O)c1ccc(CNC(=O)OCc2cccnc2)cc1` + Cc1ccccc1N=Nc1ccc(NC(=O)c2ccnn2C)c(C)c1, the IC50 [1] was 7.66 µM, the IC50 [2] was 6.79 µM and the IC50 [3] was 7.2 µM. It also gave an IC50 [4] of 8.03 µM, an IC50 [5] greater than 10 µM and a viability, T/C (second compound 0.1 µM, first compound 0.0316 µM) of 85.7%. The viability, T/C (second compound 0.1 µM, first compound 0.1 µM) was 97.6%, the viability, T/C (second compound 0.1 µM, first compound 0.316 µM) was 102% and the viability, T/C (second compound 0.1 µM, first compound 1 µM) was 111%. For the same molecule, the viability, T/C (second compound 0.1 µM, first compound 3.16 µM) was 77.8%, the viability, T/C (second compound 0.1 µM, first compound 10 µM) was 41.6% and the viability, T/C (second compound 0.316 µM, first compound 0.0316 µM) was 90.6%. For the same molecule, the viability, T/C (second compound 0.316 µM, first compound 0.1 µM) was 93.8%, the viability, T/C (second compound 0.316 µM, first compound 0.316 µM) was 89.5% and the viability, T/C (second compound 0.316 µM, first compound 1 µM) was 90.7%. The viability, T/C (second compound 0.316 µM, first compound 3.16 µM) was 67.5%, the viability, T/C (second compound 0.316 µM, first compound 10 µM) was 41.1% and the viability, T/C (second compound 1 µM, first compound 0.0316 µM) was 97.1%. For the same molecule, the viability, T/C (second compound 1 µM, first compound 0.1 µM) was 95.3%, the viability, T/C (second compound 1 µM, first compound 0.316 µM) was 107% and the viability, T/C (second compound 1 µM, first compound 1 µM) was 97.4%. The viability, T/C (second compound 1 µM, first compound 3.16 µM) was 76.6%, the viability, T/C (second compound 1 µM, first compound 10 µM) was 39.4% and the viability, T/C (second compound 3.16 µM, first compound 0.0316 µM) was 93.2%. The viability, T/C (second compound 3.16 µM, first compound 0.1 µM) was 93.3%, the viability, T/C (second compound 3.16 µM, first compound 0.316 µM) was 104% and the viability, T/C (second compound 3.16 µM, first compound 1 µM) was 112%. It also gave a viability, T/C (second compound 3.16 µM, first compound 3.16 µM) of 73.2%, a viability, T/C (second compound 3.16 µM, first compound 10 µM) of 44.5% and a viability, T/C (second compound 10 µM, first compound 0.0316 µM) of 115%. It also gave a viability, T/C (second compound 10 µM, first compound 0.1 µM) of 116%, a viability, T/C (second compound 10 µM, first compound 0.316 µM) of 109% and a viability, T/C (second compound 10 µM, first compound 1 µM) of 102%. It also gave a viability, T/C (second compound 10 µM, first compound 3.16 µM) of 91.8% and a viability, T/C (second compound 10 µM, first compound 10 µM) of 58.2%.
